Assay results taken from US12409172B2, “Dosage regimen” (UNION therapeutics A/S, priority 2023, dated 2025).
Several values for one entry are separate records, joined by “and”; a condition that tells them apart may be missing. Equal entries are not always repeated.

Columns and labels:
[1] = Population pharmacokinetics (popPK) model for orismilast; set-up: species or system human
Description: All subjects were treated with orismilast as IR capsule, IR solution, IR tablet or MR tablet with available PK samples. Although the modified release tablet was the formulation selected for further studies, the popPK model was also built using the immediate release formulations (IR solution, IR tablet and IR capsule), especially to obtain stable estimates of elimination parameters (clearances) across formulations and obtain a robust model to support the simulation.
PopPK parameters were estimated by non-linear mixed effect modelling using MONOLIX. Mixed effects models describe the influence of both fixed effects and random effects. The random effects are typically used to capture the variability which can be split in residual variability (error) and between-subject variability.
The population model was defined by 4 components: • 1. The structural popPK model components, which defines the PK parameters and describe the plasma concentration-time profiles of orismilast. • 2. The inter-individual random effect model component, which describes the inter-individual variation (IIV) and inter-occasion variation (IOV) in PK parameters after correction for fixed effects. • 3. The residual error (or random effect) model component, which describes the underlying distribution of the error in the measured concentrations. • 4. The covariate model component, which describes the influence of fixed effects (i.e., demographic factors) on PK parameters.
The search for the final model followed the following stepwise strategy: • 1. Selection of the simplest structural model, which predicts the plasma concentration as a function of time and dose, based on smallest objective function (OF) and by the pattern in the residual plots. The best structural model, the most appropriate.IIV and IOV models, and the residual error model, were identified. The structural model was determined using the rich Phase I data from healthy volunteers (LP0058-S01, LP0058-1005, LP0058-1114, LP0058-1362, LP0058-1324 and LP0058-1442). • 2. Preliminary visual check using predictive check approach was applied to sparse data from psoriasis patients (study LP0058-1072) to assess the predictability capacities of the structural model for patient data. • 3. Psoriasis patient data were included in the model and the model was refined or adjusted if necessary. • 4. Graphical exploration of the covariates: between individual covariates and EBE of parameter or random effects. • 5. Determination of the covariate model. • 6. Selection of significant covariates to obtain the FINAL model. • 7. Inclusion of new studies in the model (e.g. UN1500001-203 and CIB1353A101) was performed by repeating steps 2 to 6.
The pre-specified covariates that were suspected a priori of having an influence on PK parameters, were included in the full model and the selection of the final model with relevant covariates were based on the statistical Wald test (keep covariates with p-value <0.05). The influence of body weight on PK parameters was included using fixed standard allometric scales.
The model was evaluated using diagnostic and goodness of fit plots and validated using Visual Predictive Checks. SAS® software V9.4 and Monolix Suite version 2021R1 release were used.
The structural model was parameterised in terms of apparent clearance (CL/F), volume of distribution of central compartment (V1/F), inter-compartmental clearance (Q/F) and volume of distribution for peripheral compartment (V2/F). The absorption was described by a 1st—order rate constant (ka1) for first absorption process, 1st—order rate constant (ka2) for second absorption process, fraction of dose absorbed through the first process (F1) and lag time (tlag2) for the start of the second phase. The relative bioavailability was also added to characterize the difference between the formulations, it was set to 1 for the IR solution, so, the other formulations were expressed relatively to the IR solution. […]

[2] = system: PDE4B and PDE4D subtype splice variants; test: PDE4 inhibition in vitro; format: biochemical

O=C(Cc1c(Cl)c[n+]([O-])cc1Cl)c1ccc(OC(F)F)c2c1OC1(CCS(=O)(=O)CC1)O2 [orismilast, 2-(3,5-dichloro-1-oxidopyridin-1-ium-4-yl)-1-[7-(difluoromethoxy)-1′,1′-dioxospiro[1,3-benzodioxole-2,4′-thiane]-4-yl]ethanone]
variability of the central PK parameters [1]: 27% and 34%
AUClast GM ratio (popPK/NCA) ([1]; 1442 - Part 1 (MR, 30 mg)): 1.03
AUClast GM ratio (popPK/NCA) ([1]; 1442 - Part 2 (Fast, 30 mg)): 1.14
AUClast GM ratio (popPK/NCA) ([1]; 1442 - Part 3 (D1 = 10 mg)): 0.98
AUClast GM ratio (popPK/NCA) ([1]; 1442 - Part 3 (D17 = 60 mg)): 0.97
AUClast GM ratio (popPK/NCA) ([1]; CIBI3S3A101 (D1 = 10 mg)): 0.98
variability of Q/F ([1]; peripheral compartment): 383%
variability of V2/F ([1]; peripheral compartment): 495%
inhibition of the PDE4 isoforms PDE4D3 and PDE4B2 [2]: selective inhibitor
